Source: US11464780B2, “Pyrazolopyrimidine derivative and use thereof” (Simcere Pharmaceutical Co. Ltd., priority 2018, dated 2022)
Like-named read-outs stand apart in the source and are kept apart here.

Key:
[1] = molecular target: T1, Ba/F3 LMNA-NTRK1-G595R stably transfected cell line (Homo sapiens, UniProt P04629, G595R, cells depend on it); assay: Cell proliferation inhibition (CellTiter-Glo); type: cell-based; details: 72 hours, read-out: The half maximal inhibitory concentration IC50 against cells, Ba/F3 LMNA-NTRK1-G595R
T1 construct: fused on or other part: P02545 (Prelamin-A/C)
T1 sequence (P04629 whole entry G595R, the tested form may be a part): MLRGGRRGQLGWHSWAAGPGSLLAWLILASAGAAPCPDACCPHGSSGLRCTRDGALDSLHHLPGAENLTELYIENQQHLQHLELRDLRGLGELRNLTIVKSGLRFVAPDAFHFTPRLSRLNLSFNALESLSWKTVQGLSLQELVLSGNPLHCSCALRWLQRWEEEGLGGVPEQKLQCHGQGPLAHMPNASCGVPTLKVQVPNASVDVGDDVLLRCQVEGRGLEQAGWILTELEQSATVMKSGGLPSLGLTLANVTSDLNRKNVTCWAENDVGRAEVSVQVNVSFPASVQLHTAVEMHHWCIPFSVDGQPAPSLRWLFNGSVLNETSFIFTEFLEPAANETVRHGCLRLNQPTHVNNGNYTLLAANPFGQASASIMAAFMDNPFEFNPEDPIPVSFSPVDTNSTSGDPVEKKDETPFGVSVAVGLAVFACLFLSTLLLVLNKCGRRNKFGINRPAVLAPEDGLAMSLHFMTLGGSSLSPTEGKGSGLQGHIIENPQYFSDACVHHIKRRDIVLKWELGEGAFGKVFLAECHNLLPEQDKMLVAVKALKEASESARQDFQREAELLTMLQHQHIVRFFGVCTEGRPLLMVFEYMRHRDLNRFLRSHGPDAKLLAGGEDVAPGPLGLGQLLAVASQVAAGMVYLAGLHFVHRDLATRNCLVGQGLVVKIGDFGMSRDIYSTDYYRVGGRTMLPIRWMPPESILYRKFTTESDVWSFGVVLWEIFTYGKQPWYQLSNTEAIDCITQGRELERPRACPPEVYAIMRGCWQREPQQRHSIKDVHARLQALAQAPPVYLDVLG

[2] = molecular target: T2, Ba/F3 LMNA-NTRK1-WT stably transfected cell line (Homo sapiens, UniProt P04629); assay: Cell proliferation inhibition (CellTiter-Glo); type: cell-based; details: 72 hours, read-out: The half maximal inhibitory concentration IC50 against cells, Ba/F3 LMNA-NTRK1-WT
T2 construct: fused on or other part: P02545 (Prelamin-A/C)
T2 sequence (P04629 whole entry, stated change not applied, the tested form may be a part): as the sequence (P04629 whole entry G595R, the tested form may be a part) above, with R595G counted along it
Description: Adenosine Tri-Phosphate (ATP) is an energy carrier shared by various life activities in nature, and is the smallest unit of energy storage and transfer. The CellTiter-Glo™ cell viability detection kit uses luciferase as the detection substance, and luciferase requires the participation of ATP during the process of luminescence. CellTiter-Glo™ reagent is added to cell culture medium, and the luminescent intensity is measured. The luminescent signal is directly proportional to the amount of ATP in the system, and ATP is positively related to the number of living cells. Therefore, by using the CellTiter-Glo kit to detect ATP content, cell proliferation can be detected. In this assay, the cell line is Ba/F3 LMNA-NTRK1-WT stably transfected cell line, with 5000 cells/well.
IC50 Determination Process:
1. Cell Culture and Inoculation
a) the cells in the logarithmic growth phase were harvested, and counted with a platelet counter. Trypan blue exclusion method was used to detect cell viability to ensure the cell viability was no less than 90%.
b) the cell concentration was adjusted; 90 μL of cell suspension was added respectively into a 96-well plate.
c) the cells in the 96-well plates was cultured under conditions of 37° C., 5% CO2 and 95% humidity overnight.
2. Drug Dilution and Administration
a) 10-fold drug solutions were prepared, the highest concentration was 10 μM, 9 concentrations, 3-fold diluted (refer to Appendix I). 10 μL of each drug solution was added to each well of the 96-well plate seeded with the cells in triplicate.
b) the cells in the 96-well plate added with the drug were cultured under conditions of 37° C., 5% CO2 and 95% humidity for 72 hours, and then CTG (cell proliferation) was performed.
a) CellTiter-Glo™ reagent was thawed, and the cell plate was equilibrated at room temperature for 30 minutes.
b) CellTiter-Glo™ reagent of a same volume was added to each well;
c) the cell plate was shaken on an orbital shaker for 5 minutes to lyse the cells.
d) the cell plate was placed at room temperature for 20 minutes to stabilize the luminescent signal.
e) the luminescent intensity was read.
GraphPad Prism 5.0 software was used to analyze the data, nonlinear S-curve regression was used to fit the data to obtain dose-effect curve, and IC50 value was calculated therefrom.

[3] = molecular target: T3, BaF3 ETV6-NTRK3-G623R stably transfected cell line (Homo sapiens, UniProt Q16288, G623R, cells depend on it); assay: Cell proliferation inhibition (CellTiter-Glo); type: cell-based; details: 72 hours, read-out: The half maximal inhibitory concentration IC50 against cells, BaF3 ETV6-NTRK3-G623R
T3 construct: fused on or other part: P41212 (Transcription factor ETV6)

[4] = molecular target: T4, TrkA (Homo sapiens, UniProt P04629); assay: Kinase inhibitory activity (33P-ATP filter binding, Reaction Biology Corp.); type: biochemical; details: read-out: The half maximal inhibitory concentration IC50 on the kinases, TrkA
T4 construct: purchased Reaction Biology Corp. (contract assay)
T4 sequence (P04629 33-796): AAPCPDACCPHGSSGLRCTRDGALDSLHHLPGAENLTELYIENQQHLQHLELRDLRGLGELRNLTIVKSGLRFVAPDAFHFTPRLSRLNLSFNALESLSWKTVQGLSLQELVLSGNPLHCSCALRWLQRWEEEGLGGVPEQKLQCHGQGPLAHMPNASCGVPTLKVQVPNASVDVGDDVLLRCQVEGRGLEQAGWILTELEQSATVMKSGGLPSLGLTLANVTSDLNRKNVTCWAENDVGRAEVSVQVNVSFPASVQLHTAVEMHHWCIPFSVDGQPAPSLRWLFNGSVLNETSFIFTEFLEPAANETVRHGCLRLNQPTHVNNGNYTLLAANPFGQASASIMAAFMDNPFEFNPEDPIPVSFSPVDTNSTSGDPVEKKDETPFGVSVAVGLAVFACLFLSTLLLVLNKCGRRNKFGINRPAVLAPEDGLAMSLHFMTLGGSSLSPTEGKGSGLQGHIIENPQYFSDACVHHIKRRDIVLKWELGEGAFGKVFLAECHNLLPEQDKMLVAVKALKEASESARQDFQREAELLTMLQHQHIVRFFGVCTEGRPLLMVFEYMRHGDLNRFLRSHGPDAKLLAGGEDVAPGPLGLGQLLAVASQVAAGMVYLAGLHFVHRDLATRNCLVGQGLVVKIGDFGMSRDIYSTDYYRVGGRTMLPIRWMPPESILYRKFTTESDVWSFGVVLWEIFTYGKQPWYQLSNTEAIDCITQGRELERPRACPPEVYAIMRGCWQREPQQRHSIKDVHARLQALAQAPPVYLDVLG
Description: (§1) The mixture was incubated at room temperature for 20 minutes. To the reaction mixture was added a certain concentration of ^33P-ATP to initiate the reaction, and then the mixture was incubated at room temperature for 120 minutes. The radioactivities of the reactants were determined by the method of filter binding. The final kinase activity was expressed as the ratio of the remaining kinase activity in the test sample to the kinase activity in the DMSO control group. The dose-effect curve was fitted by GraphPad software and the IC50 was calculated.

[5] = molecular target: T5, TrkA-G667C (Homo sapiens, UniProt P04629, G667C); assay: as above; type: biochemical; details: read-out: The half maximal inhibitory concentration IC50 on the kinases, TrkA-G667C
T5 construct: purchased Reaction Biology Corp. (contract assay)
T5 sequence (P04629 33-796 G667C): as the sequence (P04629 33-796) above, with G635C counted along it
Description: as §1

[6] = molecular target: T6, Ros-G2032R (Homo sapiens, UniProt P08922, G2032R); assay: as above; type: biochemical; details: read-out: The half maximal inhibitory concentration IC50 on the kinases, Ros-G2032R
T6 construct: purchased Reaction Biology Corp. (contract assay)
T6 sequence (P08922 28-2347 G2032R): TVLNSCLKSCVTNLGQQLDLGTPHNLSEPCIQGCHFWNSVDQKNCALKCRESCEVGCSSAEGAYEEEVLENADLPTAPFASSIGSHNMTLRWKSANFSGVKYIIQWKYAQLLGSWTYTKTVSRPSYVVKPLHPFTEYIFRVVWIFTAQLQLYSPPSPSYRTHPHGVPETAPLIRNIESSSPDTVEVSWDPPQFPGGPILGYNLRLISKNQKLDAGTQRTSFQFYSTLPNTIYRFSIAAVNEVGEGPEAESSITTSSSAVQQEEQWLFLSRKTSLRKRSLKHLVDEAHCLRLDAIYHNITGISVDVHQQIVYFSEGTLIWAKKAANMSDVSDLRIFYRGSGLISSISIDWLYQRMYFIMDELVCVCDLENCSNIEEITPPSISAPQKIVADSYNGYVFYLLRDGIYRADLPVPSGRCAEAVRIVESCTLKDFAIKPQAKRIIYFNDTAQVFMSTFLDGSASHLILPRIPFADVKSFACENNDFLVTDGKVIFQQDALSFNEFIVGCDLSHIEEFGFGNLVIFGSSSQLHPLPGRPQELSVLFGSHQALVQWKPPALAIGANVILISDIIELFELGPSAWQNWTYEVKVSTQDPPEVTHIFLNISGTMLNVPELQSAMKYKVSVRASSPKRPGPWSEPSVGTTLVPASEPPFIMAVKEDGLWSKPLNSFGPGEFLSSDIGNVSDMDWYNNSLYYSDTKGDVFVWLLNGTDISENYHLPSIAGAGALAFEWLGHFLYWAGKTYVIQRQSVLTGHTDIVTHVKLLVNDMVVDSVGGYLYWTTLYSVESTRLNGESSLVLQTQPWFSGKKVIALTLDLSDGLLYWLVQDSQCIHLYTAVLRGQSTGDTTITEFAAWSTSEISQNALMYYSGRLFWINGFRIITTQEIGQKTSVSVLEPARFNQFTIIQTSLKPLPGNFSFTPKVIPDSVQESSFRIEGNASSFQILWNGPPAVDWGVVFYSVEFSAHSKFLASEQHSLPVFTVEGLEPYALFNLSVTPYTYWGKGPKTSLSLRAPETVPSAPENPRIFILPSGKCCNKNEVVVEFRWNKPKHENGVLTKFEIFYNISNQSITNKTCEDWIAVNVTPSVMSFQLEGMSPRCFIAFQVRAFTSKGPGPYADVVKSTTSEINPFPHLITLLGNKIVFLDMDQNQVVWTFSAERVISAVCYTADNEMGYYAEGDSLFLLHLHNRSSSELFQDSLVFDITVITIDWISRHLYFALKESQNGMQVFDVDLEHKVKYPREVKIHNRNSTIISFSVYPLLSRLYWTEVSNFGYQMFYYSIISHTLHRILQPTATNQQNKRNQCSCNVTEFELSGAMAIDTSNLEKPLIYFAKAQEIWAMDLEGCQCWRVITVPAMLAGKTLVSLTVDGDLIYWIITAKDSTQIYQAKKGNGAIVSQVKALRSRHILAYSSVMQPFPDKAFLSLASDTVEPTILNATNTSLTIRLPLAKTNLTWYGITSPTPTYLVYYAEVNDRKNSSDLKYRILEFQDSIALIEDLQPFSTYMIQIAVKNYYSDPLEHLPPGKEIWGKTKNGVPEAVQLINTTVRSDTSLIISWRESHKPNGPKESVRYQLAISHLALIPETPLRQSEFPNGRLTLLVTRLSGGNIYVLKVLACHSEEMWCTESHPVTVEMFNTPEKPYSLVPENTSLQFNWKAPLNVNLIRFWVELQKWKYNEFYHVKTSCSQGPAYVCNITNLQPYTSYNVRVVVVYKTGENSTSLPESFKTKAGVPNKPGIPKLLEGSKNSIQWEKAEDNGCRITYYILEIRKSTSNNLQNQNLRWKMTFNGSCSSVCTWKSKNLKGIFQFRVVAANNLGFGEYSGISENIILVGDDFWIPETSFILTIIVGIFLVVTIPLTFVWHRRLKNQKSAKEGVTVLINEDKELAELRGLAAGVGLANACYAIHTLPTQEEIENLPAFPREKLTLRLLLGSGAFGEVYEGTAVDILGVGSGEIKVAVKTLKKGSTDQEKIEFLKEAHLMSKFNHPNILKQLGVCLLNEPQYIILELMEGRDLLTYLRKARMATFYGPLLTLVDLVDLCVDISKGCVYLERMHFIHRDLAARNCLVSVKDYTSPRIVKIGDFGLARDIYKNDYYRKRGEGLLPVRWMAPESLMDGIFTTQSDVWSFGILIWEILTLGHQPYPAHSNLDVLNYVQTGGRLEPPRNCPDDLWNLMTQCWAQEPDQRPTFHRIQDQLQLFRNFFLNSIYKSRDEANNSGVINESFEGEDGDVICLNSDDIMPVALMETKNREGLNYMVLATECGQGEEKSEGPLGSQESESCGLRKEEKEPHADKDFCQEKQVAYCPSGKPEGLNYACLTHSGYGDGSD
Description: as §1

[7] = molecular target: T7, Ros1 (Homo sapiens, UniProt P08922); assay: as above; type: biochemical; details: read-out: The half maximal inhibitory concentration IC50 on the kinases, Ros1
T7 construct: purchased Reaction Biology Corp. (contract assay)
T7 sequence (P08922 28-2347): as the sequence (P08922 28-2347 G2032R) above, with R2005G counted along it
Description: as §1

[8] = molecular target: T8, TrkC (Homo sapiens, UniProt Q16288); assay: as above; type: biochemical; details: read-out: The half maximal inhibitory concentration IC50 on the kinases, TrkC
T8 construct: purchased Reaction Biology Corp. (contract assay)
T8 sequence (Q16288 32-839): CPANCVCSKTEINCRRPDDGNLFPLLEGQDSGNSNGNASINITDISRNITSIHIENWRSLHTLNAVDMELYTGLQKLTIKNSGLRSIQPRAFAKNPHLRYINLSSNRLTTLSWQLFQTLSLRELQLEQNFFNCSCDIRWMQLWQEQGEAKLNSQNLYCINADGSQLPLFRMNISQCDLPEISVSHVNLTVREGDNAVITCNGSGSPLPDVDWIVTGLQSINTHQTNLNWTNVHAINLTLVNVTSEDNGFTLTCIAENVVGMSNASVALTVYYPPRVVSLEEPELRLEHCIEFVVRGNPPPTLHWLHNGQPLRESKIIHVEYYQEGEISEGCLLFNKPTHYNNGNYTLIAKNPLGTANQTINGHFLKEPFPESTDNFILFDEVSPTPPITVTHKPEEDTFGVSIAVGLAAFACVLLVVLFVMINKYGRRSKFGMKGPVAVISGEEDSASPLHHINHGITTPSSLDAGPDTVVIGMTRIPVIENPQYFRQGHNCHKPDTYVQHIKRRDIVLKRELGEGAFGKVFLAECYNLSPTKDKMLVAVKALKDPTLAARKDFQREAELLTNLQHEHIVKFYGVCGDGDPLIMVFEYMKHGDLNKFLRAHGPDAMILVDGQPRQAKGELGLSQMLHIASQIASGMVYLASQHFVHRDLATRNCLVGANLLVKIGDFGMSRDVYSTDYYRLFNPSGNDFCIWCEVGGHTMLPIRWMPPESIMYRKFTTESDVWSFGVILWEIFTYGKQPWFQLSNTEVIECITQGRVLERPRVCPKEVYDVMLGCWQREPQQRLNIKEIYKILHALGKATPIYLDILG
Description: as §1

[9] = molecular target: T9, TrkA-G595R (Homo sapiens, UniProt P04629, G595R); assay: as above; type: biochemical; details: read-out: The half maximal inhibitory concentration IC50 on the kinases, TrkA-G595R
T9 construct: purchased Reaction Biology Corp. (contract assay)
T9 sequence (P04629 33-796 G595R): as the sequence (P04629 33-796) above, with G563R counted along it
Description: as §1

[10] = molecular target: T10, Ba/F3 SLC34A2-ROS1-G2032R stably transfected cell line (Homo sapiens, UniProt P08922, G2032R, cells depend on it); assay: Cell proliferation inhibition (CellTiter-Glo); type: cell-based; details: 72 hours, read-out: The half maximal inhibitory concentration IC50 against cells, Ba/F3 SLC34A2-ROS1-G2032R
T10 construct: fused on or other part: O95436 (Sodium-dependent phosphate transport protein 2B)

[11] = molecular target: T11, ALK (Homo sapiens, UniProt Q9UM73); assay: Kinase inhibitory activity (33P-ATP filter binding, Reaction Biology Corp.); type: biochemical; details: read-out: The half maximal inhibitory concentration IC50 on the kinases, ALK
T11 construct: purchased Reaction Biology Corp. (contract assay)
Description: The inhibitory activities of the compounds on TrkA, TrkC, ALK, Ros1 and other kinases were determined by Reaction Biology Corp. To reaction buffer (20 mM Hepes (pH 7.5), 10 mM MgCl2, 1 mM EGTA, 0.02% Brij35, 0.02 mg/mL BSA, 0.1 mM Na3VO4, 2 mM DTT, 1% DMSO) were sequentially added a certain concentration of substrate, coenzyme factor, kinase and test compound (10 concentrations, 3-fold serial dilutions, DMSO at a final concentration of […]), and the mixture was mixed evenly. The mixture was incubated at room temperature for 20 minutes. To the reaction mixture was added a certain concentration of ^33P-ATP to initiate the reaction, and then the mixture was incubated at room temperature for 120 minutes. The radioactivities of the reactants were determined by the method of filter binding. The final kinase activity was expressed as the ratio of the remaining kinase activity in the test sample to the kinase activity in the DMSO control group. The dose-effect curve was fitted by GraphPad software and the IC50 was calculated.

[12] = In vivo pharmacokinetic test in mice; design: species or system male CD-1 mice; details: for Vd: read-out: Apparent volume of distribution Vd; for AUC(0-t): read-out: Area under the curve AUC0-last; for half-life: read-out: Half life T1/2 (converted); for bioavailability: read-out: Bioavailability F %; for Cmax: read-out: Peak concentration Cmax; for Tmax: read-out: Time of peak concentration Tmax
Description: Experimental object: male CD-1 mice aged 7-9 weeks were used as the experimental animals, the LC/MS/MS method was used to determine the drug concentrations in plasma at different time points after single intravenous (IV) and intragastric (PO) administration of the compounds, in vivo pharmacokinetic behaviors of the compounds of the present disclosure in mice were studied, and pharmacokinetic characteristics thereof were evaluated. Drug preparation: The compounds were prepared into clear solutions with 5% DMSO+10% solutol+85% water as solvent for administration in IV (intravenous) group and PO (intragastric). The dose of the compounds: IV dose of 3 mg/kg, and PO dose of […].

[13] = molecular target: T12, Ba/F3 SLC34A2-ROS1-WT stably transfected cell line (Homo sapiens, UniProt P08922); assay: Cell proliferation inhibition (CellTiter-Glo); type: cell-based; details: 72 hours, read-out: The half maximal inhibitory concentration IC50 against cells, Ba/F3 SLC34A2-ROS1-WT
T12 construct: fused on or other part: O95436 (Sodium-dependent phosphate transport protein 2B)

[14] = molecular target: T13, Ba/F3 LMNA-NTRK1-F589L stably transfected cell line (Homo sapiens, UniProt P04629, F589L, cells depend on it); assay: Cell proliferation inhibition (CellTiter-Glo); type: cell-based; details: 72 hours, read-out: The half maximal inhibitory concentration IC50 against cells, Ba/F3 LMNA-NTRK1-F589L
T13 construct: fused on or other part: P02545 (Prelamin-A/C)
T13 sequence (P04629 whole entry F589L, the tested form may be a part): as the sequence (P04629 whole entry G595R, the tested form may be a part) above, with F589L, R595G counted along it

[15] = male, CD-1, mouse, plasma, IV dose of 3 mg/kg
[16] = male, CD-1, mouse, plasma, PO dose of 10 mL/kg vs IV 3 mg/kg
[17] = male, CD-1, mouse, plasma, PO dose of 10 mL/kg

SMILES	GI50 [1] [nM]	GI50 [2] [nM]	GI50 [3] [nM]	IC50 [4] [nM]	IC50 [5] [nM]	IC50 [6] [nM]	IC50 [7] [nM]	IC50 [8] [nM]	IC50 [9] [nM]	GI50 [10] [nM]	IC50 [11] [nM]	Apparent clearance Cl ([12]; IV dose of 3 mg/kg) [mL/min/kg]	Vd [12, 15] [L/kg]	AUC(0-t) [12, 15] [µM·h]	half-life [12, 15] [min]	bioavailability [12, 16] [%]	AUC(0-t) [12, 17] [µM·h]	Cmax [12, 17] [µM]	Tmax [12, 17] [min]	GI50 [13] [nM]	also measured
C[C@H]1CNC(=O)c2cnn3ccc(nc23)N2OCC[C@@H]2c2cc(F)cnc2O1 [WX005B]	9.1	5.73	5.6	13.1	26.4	2.65	0.35	0.09	10.7	259	19.4	12.4	0.44	10.5	30	85	29.4	17.2	22.8	17.9	
O=C1N[C@@H]2CCC[C@@H]2Oc2ncc(F)cc2[C@H]2CCON2c2ccn3ncc1c3n2 [WX007A]	12.4	5.8	69.1	2.8	2.85	0.73	0.13	0.05	5.18	165	11.6	5.50	0.47	22.1	52.8	76	54.9	22.6	22.8	10.1	
O=C1N[C@@H]2COCC[C@@H]2Oc2ncc(F)cc2[C@H]2CCON2c2ccn3ncc1c3n2 [WX010B]	20.9	5.8	19.5	3.1		0.61				58.1		8.4	0.68	14	55.2	107	49.2	13	30	10.4	GI50 [14]: 4.26 nM
O=C1NC2(CC2)COc2ccc(F)cc2[C@H]2CCON2c2ccn3ncc1c3n2 (single isomer, unassigned) [WX003A]	27.9	4.08	0.9	2.66	3.04		0.15	0.06	3.59		28.1	10.8									Apparent volume of distribution Vd ([12]; IV dose of 3 mg/kg): 0.81 L/kg; Area under the curve AUC0-last ([12]; IV dose of 3 mg/kg): 12.216 µM·h; Half life T1/2 ([12]; IV dose of 3 mg/kg): 42 min; Area under the curve AUC0-last ([12]; PO dose of 10 mL/kg): 27.967 µM·h; Time of peak concentration Tmax ([12]; PO dose of 10 mL/kg): 22.8 min; Bioavailability F % ([12]; PO dose of 10 mL/kg vs IV 3 mg/kg): 69%; Cmax ([12]; PO dose of 10 mL/kg): 7.36 µM
